Molecules are shown by their SMILES.

By melting point is commonly meant the temperature of the solid-liquid transition. In the case of `CC(=O)N(Cc1ccccc1)NC(=O)[C@@H]1C[C@@H](S)CN1S(=O)(=O)c1ccc2ccccc2c1`, the melting point was 64 °C.
